# Test results published in ChEMBL document CHEMBL1201862, “PubChem BioAssay data set” (2004).
# The source made the active and inactive calls.
# What was measured:
# [1] = intracellular Trypanosoma cruzi inhibitors in host cells – cell-based, plate reader, cherry-pick samples, set 3, dose response (AID 651818); assay type: functional;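 also: compounds incubated with infected cells for about four days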
# [2] = target: Glucose-6-phosphate 1-dehydrogenase (Homo sapiens, UniProt P11413); assay: inhibition of Homo sapiens G6PD, dose series – biochemical, fluorescence, selectivity assay for P. falciparum G6PD inhibitor project, dose response (AID 504792); assay type: functional
# Chain of Glucose-6-phosphate 1-dehydrogenase (P11413 whole entry): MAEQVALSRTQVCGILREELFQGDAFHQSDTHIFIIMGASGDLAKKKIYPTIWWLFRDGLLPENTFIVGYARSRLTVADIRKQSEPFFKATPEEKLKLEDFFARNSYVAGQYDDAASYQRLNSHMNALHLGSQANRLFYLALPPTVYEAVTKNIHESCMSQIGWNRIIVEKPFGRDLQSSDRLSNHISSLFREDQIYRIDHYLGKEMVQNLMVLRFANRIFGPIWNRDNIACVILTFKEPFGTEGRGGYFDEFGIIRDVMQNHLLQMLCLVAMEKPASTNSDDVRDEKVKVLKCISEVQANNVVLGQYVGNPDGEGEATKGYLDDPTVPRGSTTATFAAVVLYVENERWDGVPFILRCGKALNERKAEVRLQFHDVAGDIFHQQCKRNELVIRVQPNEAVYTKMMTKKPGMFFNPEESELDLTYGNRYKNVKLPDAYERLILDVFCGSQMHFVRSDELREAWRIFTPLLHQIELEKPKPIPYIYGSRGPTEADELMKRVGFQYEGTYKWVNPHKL
# [3] = target: Cytochrome P450 2D6 (Homo sapiens, UniProt P10635);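 also: CYP2D6 member of a cytochrome P450 panel assay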
# Chain of Cytochrome P450 2D6 (P10635 whole entry): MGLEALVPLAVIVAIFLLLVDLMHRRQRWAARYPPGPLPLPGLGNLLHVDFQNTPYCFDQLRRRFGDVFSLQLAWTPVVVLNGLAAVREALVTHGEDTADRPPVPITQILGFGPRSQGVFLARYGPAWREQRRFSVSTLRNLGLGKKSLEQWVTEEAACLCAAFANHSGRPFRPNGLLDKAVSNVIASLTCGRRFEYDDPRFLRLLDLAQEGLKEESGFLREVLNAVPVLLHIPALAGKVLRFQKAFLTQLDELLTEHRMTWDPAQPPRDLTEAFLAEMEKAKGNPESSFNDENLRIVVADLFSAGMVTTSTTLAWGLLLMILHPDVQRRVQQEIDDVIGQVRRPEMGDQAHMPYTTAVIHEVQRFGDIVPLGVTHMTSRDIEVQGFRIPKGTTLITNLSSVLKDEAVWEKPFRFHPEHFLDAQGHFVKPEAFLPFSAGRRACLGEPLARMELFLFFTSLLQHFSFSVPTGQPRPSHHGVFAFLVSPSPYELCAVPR
# [4] = target: T1, Cytochrome P450 2C9 (Homo sapiens, UniProt P11712)
# T1 sequence (P11712 whole entry): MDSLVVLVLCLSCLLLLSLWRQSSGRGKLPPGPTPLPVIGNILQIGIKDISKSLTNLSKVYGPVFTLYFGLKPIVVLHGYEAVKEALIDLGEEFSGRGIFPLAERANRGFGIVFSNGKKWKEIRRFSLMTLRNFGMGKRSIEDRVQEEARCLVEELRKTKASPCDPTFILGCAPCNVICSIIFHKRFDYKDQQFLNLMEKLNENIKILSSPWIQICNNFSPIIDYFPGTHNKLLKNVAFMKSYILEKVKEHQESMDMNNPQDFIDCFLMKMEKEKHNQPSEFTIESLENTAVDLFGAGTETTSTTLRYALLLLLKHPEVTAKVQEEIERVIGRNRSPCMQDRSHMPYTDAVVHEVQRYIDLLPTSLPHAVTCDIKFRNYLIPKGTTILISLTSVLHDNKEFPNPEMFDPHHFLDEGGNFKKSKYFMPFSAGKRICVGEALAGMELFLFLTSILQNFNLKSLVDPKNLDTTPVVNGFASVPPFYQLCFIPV
# [5] = A cytotoxicity screen of small molecule inhibitors of the PhoP region in Salmonella typhi identified in the primary screen. [Related pubchem assays: 1850, 1864, 1985 ]; assay type: functional
# [6] = target: T1, Cytochrome P450 2C9; remark: listed apart in the source
# [7] = tested on: Escherichia coli; assay: microbe, parasite or virus in culture
# [8] = target: Cytochrome P450 3A4 (Homo sapiens, UniProt P08684); settings: Potency;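 also: confirmatory qHTS run detecting inhibitors and substrates of CYP3A4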
# Chain of Cytochrome P450 3A4 (P08684 whole entry): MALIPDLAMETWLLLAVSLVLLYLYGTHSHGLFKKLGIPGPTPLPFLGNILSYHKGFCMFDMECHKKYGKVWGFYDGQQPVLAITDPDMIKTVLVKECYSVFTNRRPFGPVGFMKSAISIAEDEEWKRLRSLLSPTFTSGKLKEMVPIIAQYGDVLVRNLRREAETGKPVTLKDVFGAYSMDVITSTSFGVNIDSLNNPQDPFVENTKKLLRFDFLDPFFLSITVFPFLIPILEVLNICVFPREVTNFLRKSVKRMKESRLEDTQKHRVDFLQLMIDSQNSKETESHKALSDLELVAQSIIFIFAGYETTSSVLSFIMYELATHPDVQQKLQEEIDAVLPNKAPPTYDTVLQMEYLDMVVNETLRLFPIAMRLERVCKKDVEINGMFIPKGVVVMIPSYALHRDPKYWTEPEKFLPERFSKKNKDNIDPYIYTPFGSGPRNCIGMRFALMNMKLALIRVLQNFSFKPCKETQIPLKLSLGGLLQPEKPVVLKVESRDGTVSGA
# [9] = target: T2, Sentrin-specific protease 8 (Homo sapiens, UniProt Q96LD8); assay type: functional
# T2 sequence (Q96LD8 whole entry): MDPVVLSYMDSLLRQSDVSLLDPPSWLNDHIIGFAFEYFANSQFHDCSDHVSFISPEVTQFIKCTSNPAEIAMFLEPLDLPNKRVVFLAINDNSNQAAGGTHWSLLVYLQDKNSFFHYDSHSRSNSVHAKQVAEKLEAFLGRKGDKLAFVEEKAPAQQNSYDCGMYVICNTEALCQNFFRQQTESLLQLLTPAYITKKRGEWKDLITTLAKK
# [10] = target: T2, Sentrin-specific protease 8; assay type: functional; remark: listed apart in the source
# [11] = target: Beta-galactosidase (Escherichia coli, UniProt Q8VNN2); assay: Dose response counterscreen for EBI2 assay utilizing the enzyme, b-galactosidase.; assay type: functional
# Chain of Beta-galactosidase (Q8VNN2 whole entry): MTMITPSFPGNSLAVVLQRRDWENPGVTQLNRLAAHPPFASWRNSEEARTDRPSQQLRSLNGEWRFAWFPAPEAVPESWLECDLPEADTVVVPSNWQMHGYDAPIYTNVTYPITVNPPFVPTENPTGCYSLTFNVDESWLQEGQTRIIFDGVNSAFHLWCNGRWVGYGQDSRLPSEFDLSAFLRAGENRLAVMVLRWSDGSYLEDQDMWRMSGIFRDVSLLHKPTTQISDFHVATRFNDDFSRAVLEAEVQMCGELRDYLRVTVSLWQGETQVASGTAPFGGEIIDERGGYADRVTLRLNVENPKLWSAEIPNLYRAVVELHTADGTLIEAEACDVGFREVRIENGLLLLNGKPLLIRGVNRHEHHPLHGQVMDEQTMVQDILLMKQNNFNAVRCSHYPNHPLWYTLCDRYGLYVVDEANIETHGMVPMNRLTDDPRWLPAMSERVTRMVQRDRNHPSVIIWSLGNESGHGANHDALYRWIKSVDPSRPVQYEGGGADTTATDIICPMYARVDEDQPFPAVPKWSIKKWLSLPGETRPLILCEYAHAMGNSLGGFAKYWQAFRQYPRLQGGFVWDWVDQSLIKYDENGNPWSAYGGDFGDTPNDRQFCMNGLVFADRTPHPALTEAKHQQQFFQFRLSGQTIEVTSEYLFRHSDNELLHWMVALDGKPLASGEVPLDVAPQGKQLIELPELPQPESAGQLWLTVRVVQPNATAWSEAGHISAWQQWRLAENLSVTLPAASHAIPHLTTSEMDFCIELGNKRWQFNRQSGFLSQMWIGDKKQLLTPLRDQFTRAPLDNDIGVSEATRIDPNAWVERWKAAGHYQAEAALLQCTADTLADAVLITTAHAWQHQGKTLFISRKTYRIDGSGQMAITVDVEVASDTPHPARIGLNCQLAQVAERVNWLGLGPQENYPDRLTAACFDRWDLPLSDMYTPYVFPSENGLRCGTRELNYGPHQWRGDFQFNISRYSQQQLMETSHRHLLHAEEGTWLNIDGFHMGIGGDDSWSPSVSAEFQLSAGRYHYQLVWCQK
# [12] = tested on: Vero; assay: viability of Vero cells under compound – cytotoxicity control for flavivirus capping enzyme inhibitors (AID 588742); assay type: functional; settings: Chlorocebus sabaeus
# [13] = target: T3, Histone-lysine N-methyltransferase NSD2 (Homo sapiens, UniProt O96028); assay type: biochemical
# T3 sequence (O96028 whole entry): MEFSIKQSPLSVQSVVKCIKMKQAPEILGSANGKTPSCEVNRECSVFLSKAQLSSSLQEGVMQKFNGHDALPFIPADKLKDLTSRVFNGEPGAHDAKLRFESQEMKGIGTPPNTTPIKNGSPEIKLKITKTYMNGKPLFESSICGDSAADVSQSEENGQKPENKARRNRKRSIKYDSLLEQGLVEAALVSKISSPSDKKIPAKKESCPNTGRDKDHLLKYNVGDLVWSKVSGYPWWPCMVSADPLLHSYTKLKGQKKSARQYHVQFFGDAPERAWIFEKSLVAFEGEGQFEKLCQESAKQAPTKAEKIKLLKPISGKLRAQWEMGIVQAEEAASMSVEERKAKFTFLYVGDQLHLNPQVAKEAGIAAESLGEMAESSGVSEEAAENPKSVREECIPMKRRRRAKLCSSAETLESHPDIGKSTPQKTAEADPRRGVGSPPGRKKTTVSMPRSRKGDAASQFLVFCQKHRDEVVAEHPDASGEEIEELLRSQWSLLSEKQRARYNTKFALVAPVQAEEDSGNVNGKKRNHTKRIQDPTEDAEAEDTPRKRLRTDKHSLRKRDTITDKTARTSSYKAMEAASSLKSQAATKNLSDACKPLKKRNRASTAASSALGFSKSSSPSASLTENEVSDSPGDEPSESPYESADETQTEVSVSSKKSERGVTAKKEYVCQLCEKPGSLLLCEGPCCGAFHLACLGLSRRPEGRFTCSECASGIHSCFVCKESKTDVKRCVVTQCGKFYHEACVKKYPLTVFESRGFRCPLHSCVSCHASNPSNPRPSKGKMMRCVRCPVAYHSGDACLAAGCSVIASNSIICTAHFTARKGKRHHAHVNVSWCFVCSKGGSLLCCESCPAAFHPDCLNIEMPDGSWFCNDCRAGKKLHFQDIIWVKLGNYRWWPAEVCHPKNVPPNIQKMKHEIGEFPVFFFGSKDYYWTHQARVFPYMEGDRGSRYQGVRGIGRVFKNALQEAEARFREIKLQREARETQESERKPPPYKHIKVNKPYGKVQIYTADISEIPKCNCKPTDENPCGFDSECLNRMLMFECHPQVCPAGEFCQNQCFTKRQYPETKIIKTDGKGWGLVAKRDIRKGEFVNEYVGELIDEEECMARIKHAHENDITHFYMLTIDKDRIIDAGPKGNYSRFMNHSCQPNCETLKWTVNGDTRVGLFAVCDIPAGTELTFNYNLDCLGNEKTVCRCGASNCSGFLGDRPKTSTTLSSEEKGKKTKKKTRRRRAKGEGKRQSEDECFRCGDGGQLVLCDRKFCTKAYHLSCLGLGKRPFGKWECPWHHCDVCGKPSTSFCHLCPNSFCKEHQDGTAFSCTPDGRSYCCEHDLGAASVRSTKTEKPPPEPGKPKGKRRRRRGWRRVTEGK
# [14] = luciferase reporter signal suppression in cells – H4 neuroglioma cells, luminescence, dose response (AID 1990); assay type: functional, cell-based
# [15] = target: Luciferin 4-monooxygenase (Photinus pyralis, UniProt P08659); assay: Counter Screen for Luciferase-based Assay Positives. [Related pubchem assays: 620, 618, 411 ]
# Chain of Luciferin 4-monooxygenase (P08659 whole entry): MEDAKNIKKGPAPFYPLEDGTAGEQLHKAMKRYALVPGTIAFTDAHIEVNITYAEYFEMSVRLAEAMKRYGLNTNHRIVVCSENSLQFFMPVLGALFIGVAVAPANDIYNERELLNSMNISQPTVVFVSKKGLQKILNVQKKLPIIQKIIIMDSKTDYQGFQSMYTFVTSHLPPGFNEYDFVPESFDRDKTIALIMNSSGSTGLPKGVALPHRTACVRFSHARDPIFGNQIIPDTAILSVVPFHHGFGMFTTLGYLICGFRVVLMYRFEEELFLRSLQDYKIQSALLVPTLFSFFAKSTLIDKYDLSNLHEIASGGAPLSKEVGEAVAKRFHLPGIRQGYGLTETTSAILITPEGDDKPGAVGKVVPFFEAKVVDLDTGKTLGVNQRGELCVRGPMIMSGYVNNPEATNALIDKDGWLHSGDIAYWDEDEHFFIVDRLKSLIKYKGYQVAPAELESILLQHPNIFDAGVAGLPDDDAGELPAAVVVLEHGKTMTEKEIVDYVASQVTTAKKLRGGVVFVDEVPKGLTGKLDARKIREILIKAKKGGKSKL
# [16] = Luminescence Cell-Based Dose Response HTS to Identify Inhibitors of 5'UTR Stem-Loop Driven Prion Protein mRNA Translation in H4 Neuroglioblastoma Cells. [Related pubchem assays: 1827 (Project Summary), 1813 (Primary HTS)]; assay type: functional
# [17] = alpha-synuclein stem-loop luciferase translation blockers – H4 neuroglioma cells, luminescence, confirmation (AID 1988); assay type: functional, cell-based
# [18] = tested on: HT-1080; assay: HT1080 cell viability loss – fluorescence readout (AID 620); assay type: functional, cell-based; settings: Homo sapiens
# [19] = tested on: HEK293; assay: EBV LMP1 TES2 canonical NF-kB signalling blockers – cell-based, HEK293, luciferase, cherry-pick, dose response (AID 588343); assay type: functional; settings: Homo sapiens
structure (smiles),measurement,setting,value
C[C@H]1CN([C@@H](C)CO)C(=O)Cc2cc(NC(=O)CCC(F)(F)F)ccc2O[C@H]1CN(C)Cc1ccc(C(=O)Nc2ccccc2N)cc1,AC50,[1],5.91 µM (active)
COc1ccc(CCn2c(NN=C(C)C)nc3c2c(=O)[nH]c(=O)n3C)cc1,IC50,[2],77.8 µM (inactive)
Cc1ccc(NS(=O)(=O)c2ccccc2Cl)c2c1CC(C)(C)O2,IC50,[2],> 80 µM (inactive)
same,AC50,[3],15.8 µM (inconclusive)
same,AC50,[4],inconclusive
COc1ccccc1-c1cc2nc(C)c(CCC(=O)NC(C)CCc3ccco3)c(C)n2n1 (centres undefined),EC50,[5],> 50 µM (active)
COc1ccc(CCn2c(NN)nc3c2c(=O)[nH]c(=O)n3C)cc1,IC50,[2],50.2 µM (inactive)
Cc1ccccc1NC1=NC(=S)N(c2ccccc2)C12CCOC(C)(C)C2 (centres undefined),AC50,[6],11.2 µM (inconclusive)
same,AC50,[7],22.6 µM (active)
COC(=O)C1(S(=O)(=O)C2(C(=O)OC)CCCC2)CCCC1,AC50,[7],> 150 µM (inactive)
COc1ccc(NC(=O)c2cc(Br)c(Br)s2)cn1,EC50,[5],> 50 µM (active)
O=C(N/N=C/c1cc(Br)cc(Br)c1O)c1ccccc1O,AC50,[1],1.85 µM (active)
CC1=C(/C=C/C(C)=C/C=C/C(C)=C/C=O)C(C)(C)CCC1 [RETINAL],AC50,[8],12.6 µM (inconclusive)
COc1ccccc1NC(=O)CN1CCN(c2ccccc2)CC1,EC50,[5],> 50 µM (active)
CC(C)Sc1nc2c(c(=O)[nH]c(=O)n2C)n1CCc1ccccc1,AC50,[7],33.2 µM (active)
CCC(CC)C(=O)N(C)c1c(C)nc2c(OCC=C(C)C)cccn12,IC50,[9],> 100 µM (inactive)
same,IC50,[10],33.4 µM (active)
Cc1ccc(C(=O)NNC(=O)CSc2nnc(-c3ccccc3)n2Cc2ccccc2)cc1,IC50,[11],> 80 µM (inactive)
O=C(Nc1ccc(Oc2ccccc2)nc1)C1CCCCN1Cc1cccc(O)c1 (centres undefined),IC50,[11],> 80 µM (inactive)
"O=C(/C=C(\O)c1ccccc1)c1ccccc1O [2',beta-DIHYDROXYCHALCONE]",AC50,[8],15.8 µM (inconclusive)
Cc1ccc(S(=O)(=O)Nc2ccc3c(c2)CC(=O)N([C@@H](C)CO)C[C@@H](C)[C@@H](CN(C)S(=O)(=O)c2ccc(C)cc2)O3)cc1,AC50,[1],6.15 µM (active)
CC(=O)N(Cc1ccc(F)cc1)c1cccc(C)c1C,AC50,[7],23.7 µM (active)
COc1ccc(C(=O)c2c3ccc([N+](=O)[O-])cc3[n+]([O-])n2CCCN)cc1,CC50,[12],30.6 µM (active)
same,IC50,[9],14.4 µM (active)
same,IC50,[10],9.21 µM (active)
COc1ccccc1NS(=O)(=O)c1cccc(NC2=NC(=N)c3ccccc32)c1,AC50,[7],99.5 µM (active)
CCN1CCCC1CNC(=O)c1cc2cc(F)ccc2[nH]1 (centres undefined),EC50,[5],> 50 µM (active)
CC(=O)OC1CC2C(C)(C)C(O)CCC2(C)C2CC[C@]3(C)C(=CC(=O)OC3c3ccoc3)C12C (some centres undefined),AC50,[8],39.8 µM (inconclusive)
C[C@@H]1CCCCO[C@H](CN(C)S(=O)(=O)c2ccc(Cl)cc2)[C@@H](C)CN([C@H](C)CO)C(=O)c2cc(NC(=O)Nc3ccc(C(F)(F)F)cc3)ccc2O1,AC50,[1],3 µM (active)
CC1(C)CC[C@]2(C(=O)O)C(O)C[C@@]3(C)C(=CCC4[C@@]5(C)CCC(O)C(C)(C)C5CC[C@@]43C)C2C1 (some centres undefined),AC50,[8],15.8 µM (inconclusive)
C[C@H](CO)N1C[C@H](C)[C@@H](CN(C)Cc2ccc(C(=O)Nc3ccccc3N)cc2)Oc2c(NC(=O)Nc3ccccc3)cccc2C1=O,AC50,[1],1.61 µM (active)
COc1ccc(C2CC(=O)c3ccc(OC)cc3O2)cc1 (centres undefined) [LIQUIRITIGENIN DIMETHYL ETHER],AC50,[8],20 µM (inconclusive)
COc1cc(OC)c([N+](=O)[O-])cc1/C=N/NC(=O)c1ccncc1,IC50,[9],12.3 µM (active)
same,IC50,[10],9.81 µM (active)
same,AC50,[13],> 20 µM (inactive)
C[C@H]1CN([C@@H](C)CO)C(=O)c2cccc(NC(=O)Nc3ccc(F)cc3)c2O[C@H]1CN(C)Cc1ccc(C(=O)Nc2ccccc2N)cc1,AC50,[1],2.74 µM (active)
CCCn1c(-c2ccc(F)cc2)nc2c(NCC3CCCN3CC)nc(C)nc21 (centres undefined),AC50,[8],15.8 µM (inconclusive)
CCOC(=O)c1ccc(NC(=O)CN2CCc3ccccc3C2)cc1,IC50,[9],> 100 µM (inactive)
same,IC50,[10],21.6 µM (active)
O=C(CSc1cccc[n+]1[O-])Nc1ccccc1C(F)(F)F,AC50,[7],48.6 µM (active)
O=C1CCN(Cc2ccccc2)C=C1c1ccc2ccccc2c1,IC50,[11],> 80 µM (inactive)
C[C@@H]1CN([C@@H](C)CO)C(=O)c2cccc(NC(=O)Nc3ccc(F)cc3)c2O[C@H]1CN(C)Cc1ccc(C(=O)Nc2ccccc2N)cc1,AC50,[1],0.46 µM (active)
Cn1c(-c2ccccc2)cnc1SCC(=O)N1CCCCC1,EC50,[14],8.1 µM (inconclusive)
same,EC50,[15],22.8 µM (active)
same,EC50,[16],5.72 µM (active)
same,EC50,[17],3.2 µM (active)
same,EC50,[18],> 50 µM (not active)
same,AC50,[19],2.47 µM (active)
C[N+]1(C)CCC(=C2c3ccccc3CC(=O)c3sccc32)CC1,IC50,[9],30.4 µM (active)
same,IC50,[10],12.6 µM (active)
Cc1cc(Cl)ccc1OCCCC(=O)N1CCCc2ccccc21,EC50,[5],> 50 µM (active)
COc1cccc(C(=O)Nc2nnc(C(C)C)s2)c1,IC50,[2],52.7 µM (inactive)
CCn1cc(/C=C/C(=O)Nc2ccn(Cc3c(F)c(F)cc(F)c3F)n2)cn1,IC50,[9],28.9 µM (active)
same,IC50,[10],9.64 µM (active)
CN1CCN(C(=O)/C=C\c2ccc(Cl)cc2)CC1,IC50,[11],> 80 µM (inactive)
CCCCCCC(=O)N(O)C1CC(=O)N(Cc2ccccc2)C1=O (centres undefined),EC50,[5],> 50 µM (active)
Clc1ccc2nc(-c3ccc4c(c3)OCO4)cn2c1,IC50,[2],> 80 µM (inactive)
same,AC50,[19],4.13 µM (active)
O=C(Nc1ccccc1)Oc1cccnc1O,EC50,[5],> 50 µM (active)
